Results from PubChem BioAssay AID1645862 (Buhrlage Lab, Dana-Farber Cancer Institute and Novartis …, 2021).
Activity calls are given as the source filed them. How the calls were made is not given here.

Target: Ubiquitin carboxyl-terminal hydrolase 8 (Homo sapiens) (UniProt P40818)
Assay: Ubiquitin-specific protease 8 inhibitors, concentration-effect, biochemical, validation of initial actives (AID 1645862);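 further: potency reflects inhibition of USP8 cleavage of a ubiquitin rhodamine substrate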
Conditions: recombinant USP8 deubiquitinase activity assay

Sequence of Ubiquitin carboxyl-terminal hydrolase 8 (Homo sapiens) (P40818 whole entry, looked up): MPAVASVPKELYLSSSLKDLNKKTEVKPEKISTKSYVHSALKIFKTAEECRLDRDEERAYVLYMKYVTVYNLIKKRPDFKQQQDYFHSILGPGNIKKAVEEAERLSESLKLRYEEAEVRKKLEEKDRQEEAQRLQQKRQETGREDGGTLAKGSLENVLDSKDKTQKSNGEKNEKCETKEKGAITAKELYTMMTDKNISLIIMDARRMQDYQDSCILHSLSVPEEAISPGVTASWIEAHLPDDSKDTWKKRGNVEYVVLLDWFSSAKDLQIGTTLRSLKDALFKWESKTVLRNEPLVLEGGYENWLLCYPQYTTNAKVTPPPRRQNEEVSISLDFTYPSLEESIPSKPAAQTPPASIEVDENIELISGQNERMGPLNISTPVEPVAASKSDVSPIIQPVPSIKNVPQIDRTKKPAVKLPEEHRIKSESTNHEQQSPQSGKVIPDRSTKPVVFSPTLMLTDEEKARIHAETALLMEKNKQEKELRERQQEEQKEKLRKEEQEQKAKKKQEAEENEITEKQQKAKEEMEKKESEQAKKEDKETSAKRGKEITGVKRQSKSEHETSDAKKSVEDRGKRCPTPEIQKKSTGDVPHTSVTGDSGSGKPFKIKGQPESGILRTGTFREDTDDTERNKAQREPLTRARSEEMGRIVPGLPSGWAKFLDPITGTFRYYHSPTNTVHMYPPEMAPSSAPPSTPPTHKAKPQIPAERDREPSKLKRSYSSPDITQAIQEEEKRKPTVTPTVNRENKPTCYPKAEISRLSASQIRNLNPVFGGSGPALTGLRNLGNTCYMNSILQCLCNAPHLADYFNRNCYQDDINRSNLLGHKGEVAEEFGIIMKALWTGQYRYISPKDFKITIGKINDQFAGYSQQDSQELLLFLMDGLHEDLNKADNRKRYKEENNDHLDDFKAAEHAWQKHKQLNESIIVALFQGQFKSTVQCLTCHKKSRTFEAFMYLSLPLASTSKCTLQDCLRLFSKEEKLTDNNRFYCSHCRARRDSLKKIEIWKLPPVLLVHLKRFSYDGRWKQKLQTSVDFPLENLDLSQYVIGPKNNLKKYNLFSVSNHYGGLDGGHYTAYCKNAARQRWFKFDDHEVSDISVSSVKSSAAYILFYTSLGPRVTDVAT

| IC50 | Structure (SMILES) |
| --- | --- |
| > 40 µM (inactive) | O=C1CC(c2nc3ccccc3n2CCOc2ccc(Cl)cc2)CN1c1ccccc1 (stereo not given) |
| > 40 µM (inactive) | O=C(Nc1ccc2c(c1)CCC2)C1Cc2ccccc2CN1C(=O)c1ccccc1 (stereo not given) |
| > 40 µM (inactive) | CS(=O)(=O)c1cccc(C(=O)Nc2sc3c(c2C(N)=O)CCCC3)c1 |
| > 40 µM (inactive) | OC1CCCN(c2ncc(-c3cnccn3)c(-c3cccs3)n2)C1 (stereo not given) |
| > 40 µM (inactive) | COc1ccc(NS(=O)(=O)c2cc(NC(=O)/C=C/c3ccco3)ccc2N2CCCC2)cc1 |
| > 40 µM (inactive) | COc1cc2c(=O)n(Cc3ccccc3)c(=O)n(CC(=O)N3CCCc4ccccc43)c2cc1OC |
| > 40 µM (inactive) | O=c1[nH]c(C2CCN(S(=O)(=O)c3ccc(S(=O)(=O)NC4CC4)cc3)CC2)nc2c1nnn2Cc1c(Cl)cccc1Cl |
| 16 µM | CC(C)=CCc1c2c(c3occ(-c4ccc(O)c(O)c4)c(=O)c3c1O)C=CC(C)(C)O2 |
| > 40 µM (inactive) | Cc1nc2c(-c3ccc(Cl)cc3)c[nH]n2c(=O)c1Cc1ccccc1 |
| 2.48 µM | CCC/C=C\C#CC/C=C\CCCCCCCC(=O)O |
| > 40 µM (inactive) | Cc1cc(C)c(NC(=O)Cn2c(SCc3cccc(F)c3)nc3cccnc32)c(C)c1 |
| 29.4 µM | CC(=O)NS(=O)(=O)c1ccc(NC(=O)/C=C/c2cn(-c3ccccc3)nc2-c2ccccc2)cc1 |
| > 40 µM (inactive) | CCc1nc(SCC(=O)Nc2cc(Cl)ccc2C)c2oc3ccccc3c2n1 |
| > 40 µM (inactive) | O=C(Cc1ccc(-n2c(=O)c3ccccc3n(Cc3cccc([N+](=O)[O-])c3)c2=O)cc1)NC1CCCC1 |
| > 40 µM (inactive) | C/C(=C\Cc1c(O)cc(C)c(C=O)c1O)CC[C@@]1(C)[C@H](C)CCC(=O)[C@@H]1C |
| > 40 µM (inactive) | CSc1ccc(C(=O)Nc2nc(-c3ccncc3)cs2)cc1 |
| > 40 µM (inactive) | Cc1cc(-c2nnc(SCC(=O)Nc3ccc(Br)c(C)c3)n2N)n[nH]1 |
| 7.34 µM | Cc1ccc(Cn2cc(C(=O)Nc3ccccc3C(N)=O)ccc2=O)cc1 |
| > 40 µM (inactive) | Cc1cc(N2CCOCC2)nc(N2CCN(C(=O)C(C)Oc3ccccc3)CC2)n1 (stereo not given) |
| > 40 µM (inactive) | O=C(NCc1ccco1)c1ccc(Cn2c(=O)c3sccc3n(Cc3cc(=O)n4ccccc4n3)c2=O)cc1 |
| > 40 µM (inactive) | O=C(Cn1cc(C(=O)C(F)(F)F)c2ccccc21)N1CCc2ccccc21 |
| > 40 µM (inactive) | CN1c2ccccc2C(=O)NC12CCN(C(=O)NCc1ccccc1)CC2 |
| > 40 µM (inactive) | Cn1c(O)c(C2=Nc3ccccc3SC(c3cccc(O)c3)C2)c(=O)[nH]c1=O (stereo not given) |
| > 40 µM (inactive) | Cc1ccc(N2CC(C(=O)Nc3cccc(-c4noc(C)n4)c3)CC2=O)cc1 (stereo not given) |
| > 40 µM (inactive) | Cc1cc(NS(=O)(=O)c2ccc(NC(=O)COc3ccc(Cl)cc3)cc2)no1 |
